Results from PubChem BioAssay (NCI).
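Each compound was tested at five concentrations against cells in 96-well plates for 48 hours. Abbreviation: GI50, concentration required for 50% inhibition of growth. The concentration for full growth arrest is given as TGI.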

How the values were obtained:
Experiment in all cases: NCI anticancer screen, dose series, 48 h
HL-60(TB) leukemia = system: HL-60(TB) leukemia
HCT-15 colon = system: HCT-15 colon
DLD-1 colon = system: DLD-1 colon
MALME-3M melanoma = system: MALME-3M melanoma
SK-OV-3 ovarian = system: SK-OV-3 ovarian
LXFL 529 NSCLC = system: LXFL 529 NSCLC
UO-31 renal = system: UO-31 renal
HT29 colon = system: HT29 colon
DU-145 prostate = system: DU-145 prostate
MCF7 breast = system: MCF7 breast

SMILES | TGI (HL-60(TB) leukemia) | TGI (HCT-15 colon) | TGI (DLD-1 colon) | TGI (MALME-3M melanoma) | TGI (SK-OV-3 ovarian) | TGI (LXFL 529 NSCLC) | TGI (UO-31 renal) | TGI (HT29 colon) | GI50 (HL-60(TB) leukemia) | GI50 (HCT-15 colon) | GI50 (DLD-1 colon) | GI50 (MALME-3M melanoma) | GI50 (SK-OV-3 ovarian) | GI50 (LXFL 529 NSCLC) | GI50 (UO-31 renal) | GI50 (HT29 colon) | TGI (DU-145 prostate) | TGI (MCF7 breast)
COC(=O)CCC(NC(=S)N/N=C(\C)c1ccc[nH]1)C(=O)OC (centres undefined) | > 100 µM | > 100 µM | > 100 µM | > 100 µM | > 100 µM | > 100 µM | > 100 µM | > 100 µM | – | – | – | – | – | – | – | – | – | –
CC(C)C1CO[C@]2(C)CCC(=O)N12 (some centres undefined) | > 100 µM | > 100 µM | > 100 µM | > 100 µM | > 100 µM | > 100 µM | > 100 µM | > 100 µM | – | – | – | – | – | – | – | – | – | –
C[N+]1=c2c3cccc4cccc(c(=O)n2CC1)c43 | 46.3 µM | 60.7 µM | 44 µM | 22.6 µM | 93.8 µM | 42.4 µM | 32.4 µM | 64.4 µM | – | – | – | – | – | – | – | – | – | –
O=C1C2C(C(=O)N1c1ccccc1)C1c3ccccc3C2C2C(=O)N(c3ccccc3)C(=O)C21 (centres undefined) | 44.9 µM | > 100 µM | 8.92 µM | 67.8 µM | > 100 µM | > 100 µM | > 100 µM | > 100 µM | – | – | – | – | – | – | – | – | – | –
CC(C)/C=C1\CCC(CN2CCOCC2)C1=O (centres undefined) | 5.58 µM | 19.2 µM | 8.86 µM | 31 µM | > 100 µM | 8.24 µM | 38.6 µM | 15.4 µM | – | – | – | – | – | – | – | – | – | –
CCC[CH2][Sn]([CH2]CCC)([O]C(=O)c1cc(OC)c(OC)cc1OC)[O][Sn]([CH2]CCC)([CH2]CCC)[O]C(=O)c1cc(OC)c(OC)cc1OC | 1.31 µM | 1.71 µM | 1.34 µM | 0.977 µM | 2.58 µM | 0.214 µM | 2.6 µM | 2.82 µM | 0.288 µM | 0.497 µM | 0.253 µM | 0.229 µM | 1.21 µM | 0.0599 µM | 1.33 µM | 1.22 µM | – | –
CCOC(=O)N1C/C(=C\c2ccccc2)C(=O)/C(=C/c2ccccc2)C1 | 4.3 µM | 5.74 µM | 7.25 µM | 16.9 µM | 27.8 µM | 12.4 µM | 12.4 µM | 4.05 µM | – | – | – | – | – | – | – | – | > 55.8 µM | > 20.9 µM
CC(C)N(C(=O)c1cccc(C(=O)N(C(C)C)C(C)C)c1)C(C)C | > 100 µM | > 100 µM | > 100 µM | > 100 µM | > 100 µM | > 100 µM | > 100 µM | > 100 µM | – | – | – | – | – | – | – | – | – | –
COc1cc(CNc2nc3c(N)cc(C(F)(F)F)cc3nc2-c2ccccc2)cc(OC)c1OC | > 100 µM | > 100 µM | > 100 µM | > 100 µM | > 100 µM | > 100 µM | 85.5 µM | > 100 µM | > 100 µM | – | – | – | > 100 µM | – | – | – | – | –
